Test results from patent US10357036B2, “Compounds for controlling arthropods” (priority 2015, dated 2019).

What was measured:
Phaedon cochleariae = Phaedon cochleariae spray test; conditions: 100 g/ha; after 7 days
Spodoptera frugiperda = Spodoptera frugiperda spray test; format: in vivo; conditions: 100 g/ha; after 7 days
Tetranychus urticae = Tetranychus urticae spray test, OP-resistant (bean leaf discs); format: in vivo; conditions: 100 g/ha; after 6 days
Experimental: After 6 days, the efficacy in % is determined.

| Molecule | efficacy (Phaedon cochleariae) [%] | efficacy (Spodoptera frugiperda) [%] | efficacy (Tetranychus urticae) [%] |
| --- | --- | --- | --- |
| CC(=O)NCc1cc(-c2cnn(-c3c(Cl)cc(C4(C(F)(F)F)CC4)cc3Cl)c2)ccc1F [Ia-124] | 100 |  |  |
| CC(=O)NCc1cc(-c2cnn(-c3c(F)cc(C(F)(C(F)(F)F)C(F)(F)F)cc3Br)c2)ccc1Cl [Ia-92] | 100 | 100 | 100 |
| CCC(=O)NCc1cccc(-c2cnn(-c3c(Cl)cc(C(F)(C(F)(F)F)C(F)(F)F)cc3C#N)c2)c1 [Ia-97] | 100 |  |  |
| Cc1cc(C(F)(C(F)(F)F)C(F)(F)F)cc(Cl)c1-n1cc(-c2cccc(CNC(=O)C3CC3)c2)cn1 [Ia-70] | 100 |  |  |
| CCC(=O)NCc1cc(-c2cnn(-c3c(Cl)cc(C(F)(C(F)(F)F)C(F)(F)F)cc3Cl)c2)ccc1Br [Ia-166] | 100 | 100 | 100 |
| O=S(=O)(NCc1cc(-c2cnn(-c3c(Cl)cc(C(F)(C(F)(F)F)C(F)(F)F)cc3Cl)c2)ccc1Cl)c1ccccc1 [Ic-05] | 100 | 100 |  |
| CCC(=O)NCc1cc(-c2cnn(-c3c(Cl)cc(C(F)(C(F)(F)F)C(F)(F)F)cc3OC(F)(F)F)c2)ccc1Cl [Ia-86] | 100 | 100 |  |
| CCC(=O)N(C)Cc1cc(-c2cnn(-c3c(Cl)cc(C(F)(C(F)(F)F)C(F)(F)F)cc3Cl)c2)ccc1C(F)(F)F [Ia-78] | 100 |  |  |
| CCC(=O)NCc1cccc(-c2cnn(-c3c(Cl)cc(C(F)(C(F)(F)F)C(F)(F)F)cc3C(F)F)c2)c1 [Ia-39] | 100 | 100 | 100 |
| CCC(=O)N(C)Cc1cc(-c2cnn(-c3c(Cl)cc(C(F)(C(F)(F)F)C(F)(F)F)cc3OC(F)(F)F)c2)ccc1Cl [Ia-87] | 100 | 100 | 100 |
| CC(=O)N(C)Cc1cc(-c2cnn(-c3c(Cl)cc(C(F)(C(F)(F)F)C(F)(F)F)cc3Br)c2)ccc1Cl [Ia-99] | 100 | 100 | 100 |
| O=C(CC(F)(F)F)NCc1cccc(-c2cnn(-c3c(Cl)cc(C(F)(C(F)(F)F)C(F)(F)F)cc3Cl)c2)c1 [Ia-21] | 100 | 100 |  |
| CS(=O)(=O)c1cc(C(F)(C(F)(F)F)C(F)(F)F)cc(Cl)c1-n1cc(-c2ccc(F)c(CNC(=O)C3CC3)c2)cn1 [Ia-44] | 100 |  | 100 |
| CC(=O)N(C)Cc1cc(-c2cnn(-c3c(Cl)cc(C(F)(C(F)(F)F)C(F)(F)F)cc3Cl)c2)ccc1Br [Ia-165] | 100 | 100 | 90 |
| CCCN(Cc1cc(-c2cnn(-c3c(Cl)cc(C(F)(C(F)(F)F)C(F)(F)F)cc3Cl)c2)ccc1Cl)C(C)=O [Ia-112] | 100 | 100 | 90 |
| CCC(=O)NCc1cc(-c2cnn(-c3c(F)cc(C(F)(C(F)(F)F)C(F)(F)F)cc3Br)c2)ccc1Cl [Ia-94] | 100 | 100 |  |
| CCN(Cc1cc(-c2cnn(-c3c(Cl)cc(C(F)(C(F)(F)F)C(F)(F)F)cc3Cl)c2)ccc1Cl)C(C)=O [Ia-109] | 100 | 100 | 100 |
| CC(=O)NCc1cccc(-c2cnn(-c3c(Cl)cc(C(F)(C(F)(F)F)C(F)(F)F)cc3Cl)c2)c1F [Ia-153] | 100 |  |  |
| N-[1-(2-chloro-5-{1-[2,6-dichloro-4-(1,1,1,2,3,3,3-heptafluoropropan-2-yl)phenyl]-1H-pyrazol-4-yl}phenyl)ethyl]propanamide [Ia-47] | 100 | 83 |  |
| CC(C)(C)C(=O)NCc1cc(-c2cnn(-c3c(Cl)cc(C(F)(C(F)(F)F)C(F)(F)F)cc3C(F)F)c2)ccc1F [Ia-62] | 100 |  |  |

| Molecule | efficacy (Phaedon cochleariae) [%] | efficacy (Spodoptera frugiperda) [%] | efficacy (Tetranychus urticae) [%] |
| --- | --- | --- | --- |
| CCC(=O)NCc1cc(-c2cn(-c3c(Cl)cc(C(F)(C(F)(F)F)C(F)(F)F)cc3Cl)cn2)ccc1F [I-T2-03] | 100 |  |  |
| CCC(=O)NCc1cc(-c2cnn(-c3c(Cl)cc(C(F)(C(F)(F)F)C(F)(F)F)cc3C#N)c2)ccc1Cl [Ia-114] | 100 | 100 |  |
| CC(=O)NCc1cccc(-c2cnn(-c3c(Cl)cc(C(F)(C(F)(F)F)C(F)(F)F)cc3Cl)c2)c1 [Ia-09] | 100 | 100 | 90 |
| CCC(=O)NCc1cc(-c2cnn(-c3c(Cl)cc(C(F)(C(F)(F)F)C(F)(F)F)cc3Cl)c2)ccc1C [Ia-81] |  | 100 | 100 |
| CCC(=O)NCc1cc(-c2cnn(-c3c(Cl)cc(C4(C(F)(F)F)CC4)cc3Cl)c2)ccc1F [Ia-123] | 100 | 83 |  |
| CCC(=O)NC(C)c1cc(-c2cnn(-c3c(Cl)cc(C(F)(C(F)(F)F)C(F)(F)F)cc3Cl)c2)ccc1F (stereo not shown) [Ia-50] |  | 100 |  |
| CCC(=O)NCc1cc(-c2cnn(-c3c(Cl)cc(C(F)(C(F)(F)F)C(F)(F)F)cc3Br)c2)ccc1Cl [Ia-89] | 100 | 100 | 90 |
| CC(=O)NCc1cc(-c2cnn(-c3c(Cl)cc(C(F)(C(F)(F)F)C(F)(F)F)cc3Cl)c2)ccc1Br [Ia-164] | 100 | 100 | 100 |
| CCC(=O)NCc1cc(-c2cn(-c3c(Cl)cc(C(F)(C(F)(F)F)C(F)(F)F)cc3Cl)nn2)ccc1Cl [I-T7-02] | 100 | 100 |  |
| CCC(=O)NCc1cc(-c2cnn(-c3c(Cl)cc(C(F)(C(F)(F)F)C(F)(F)F)cc3OC(F)F)c2)cnc1Cl [Ia-160] | 100 | 100 | 100 |
| O=C(NCc1cc(-c2cnn(-c3c(Cl)cc(C(F)(C(F)(F)F)C(F)(F)F)cc3Cl)c2)ccc1Cl)C(F)(F)F [Ia-120] | 100 | 100 | 100 |
| O=C(NCc1cc(-c2cn(-c3c(Cl)cc(C(F)(C(F)(F)F)C(F)(F)F)cc3Cl)nn2)ccc1Cl)C1CC1 [I-T7-03] | 100 | 100 |  |
| CC(=O)NCc1cc(-c2cnn(-c3c(Cl)cc(C(F)(C(F)(F)F)C(F)(F)F)cc3OC(F)(F)F)c2)ccc1F [Ia-06] | 100 | 100 |  |
| CN(Cc1cc(-c2cnn(-c3c(Cl)cc(C(F)(C(F)(F)F)C(F)(F)F)cc3Cl)c2)ccc1Cl)C(=O)C1CC1 [Ia-24] | 100 | 100 |  |
| CC(=O)N(C)Cc1cc(-c2cnn(-c3c(Cl)cc(C(F)(C(F)(F)F)C(F)(F)F)cc3Cl)c2)c(F)cc1Cl [Ia-110] | 100 | 100 |  |
| CCC(=O)NCc1cc(-c2cnn(-c3c(Cl)cc(C(F)(C(F)(F)F)C(F)(F)F)cc3C#N)c2)ccc1C [Ia-101] | 100 | 100 |  |
| CC(=O)NC(C)c1cc(-c2cnn(-c3c(Cl)cc(C(F)(C(F)(F)F)C(F)(F)F)cc3Cl)c2)ccc1F (stereo not shown) [Ia-49] | 100 | 100 |  |
| CC(=O)NCc1cc(-c2cn(-c3c(Cl)cc(C(F)(C(F)(F)F)C(F)(F)F)cc3Cl)cn2)ccc1F [I-T2-01] | 100 |  |  |
| CCC(=O)NCc1cc(-c2cnn(-c3c(Cl)cc(C(F)(C(F)(F)F)C(F)(F)F)cc3C#N)c2)ccc1F [Ia-103] | 100 | 100 |  |
